Laboratory results published in patent US6071966A, “1-amino-alkylcyclohexane NMDA receptor antagonists” (Merz + Co. GmbH & Co., priority 1998, dated 2000).
pIC50: −log10 of the molar value.

What was measured:
[1] = Traction reflex test (myorelaxant action); type: in vivo; details: mouse, traction reflex versus mes, ip; mice, i.p.; Table 8; read-out: TI Tract. (ED50 traction reflex impairment / ED50 MES)
Protocol: (§1) NMR female mice (18-28 g) housed 5 per cage were used for the maximal electroshock (MES) and motor impairment tests. […] All compounds were dissolved in 0.9% saline.
(§2) The MES test was performed together with tests for myorelaxant action (traction reflex) and motor coordination (rotarod). For the traction reflex test mice were placed with their forepaws on a horizontal rod and were required to place all 4 paws on the wire within 10 seconds. To test ataxia (motor coordination) mice were placed on rotarod (5 rpm) and were required to remain on the rod for 1 minute. […] These tests were followed by MES (100 Hz, 0.5 second shock duration, 50 mA shock intensity, 0.9 ms impulse duration, Ugo Basile) applied through corneal electrodes. The presence of tonic convulsions was scored (tonic extension of hind paws with minimum angle to the body of 90°). The aim was to obtain ED50 s for all parameters scored (anticonvulsive activity and motor side effects) with use of the Litchfield Wilcoxon test for quantal dose responses. Division of the ED50 for side effects (ataxia or myorelaxation) by the ED50 for antagonism of electroshock convulsions was used as a therapeutic index (TI). […]

NMDA receptor = assay: [3H]-(+)-MK-801 receptor binding to rat cortical membranes; details: read-out: [3H]MK-801 IC50, [3H]-(+)-MK-801 5 nM, Table 7
Protocol: Male Sprague-Dawley rats (200-250 g) were decapitated and their brains were removed rapidly. The cortex was dissected and homogenized in 20 volumes of ice-cold 0.32 M sucrose using a glass-Teflon homogenizer. The homogenate was centrifuged at 1000×g for 10 minutes. The pellet was discarded and the supernatant centrifuged at 20,000×g for 20 minutes. The resulting pellet was re-suspended in 20 volumes of distilled water and centrifuged for 20 minutes at 8000×g. Then the supernatant and the buffy coat were centrifuged three times (48,000×g for 20 minutes) in the presence of 50 mM Tris-HCl, pH 8.0. All centrifugation steps were carried out at 4° C. After resuspension in 5 volumes of 50 mM Tris-HCl, pH 8.0 the membrane suspension was frozen rapidly at -80° C. On the day of assay the membranes were thawed and washed four times by resuspension in 50 mM Tris-HCl, pH 8.0 and centrifugation at 48,000×g for 20 minutes. The final pellet was suspended in assay buffer. The amount of protein in the final membrane preparation was determined according to the method of Lowry with some modifications. The final protein concentration used for our studies was between 250-500 μg/ml.
Membranes were re-suspended and incubated in 50 mM Tris-HCl, pH 8.0. […] Incubations were terminated using a Millipore filter system. The samples were rinsed three times with 2.5 ml ice cold assay buffer over glass fiber filters obtained from Schleicher & Schuell under a constant vacuum. Filtration was performed as rapidly as possible. Following separation and rinse, the filters were placed into scintillation liquid (5 ml; Ultima Gold) and radioactivity retained on the filters was determined with a conventional liquid scintillation counter (Hewlett Packard, Liquid Scintillation Analyser).
IC50 s in patch clamp, excitotoxicity, and binding studies were calculated according to the four parameter alogistic equation using the Grafit computer program (Erithacus Software, England). Ki value for binding studies were then determined according to Cheng and Prusoff. Binding values presented are means ±SEM of 3-5 determinations (each performed in duplicate).

[2] = Rotarod test (motor coordination, ataxia); type: in vivo; details: mouse, rotarod versus mes, ip; mice, i.p.; Table 8; read-out: TI Rot. (ED50 rotarod failure / ED50 MES)
Protocol: (§3) All compounds were dissolved in 0.9% saline.
(§4) The MES test was performed together with tests for myorelaxant action (traction reflex) and motor coordination (rotarod). For the traction reflex test mice were placed with their forepaws on a horizontal rod and were required to place all 4 paws on the wire within 10 seconds. To test ataxia (motor coordination) mice were placed on rotarod (5 rpm) and were required to remain on the rod for 1 minute. […] These tests were followed by MES (100 Hz, 0.5 second shock duration, 50 mA shock intensity, 0.9 ms impulse duration, Ugo Basile) applied through corneal electrodes. The presence of tonic convulsions was scored (tonic extension of hind paws with minimum angle to the body of 90°). The aim was to obtain ED50 s for all parameters scored (anticonvulsive activity and motor side effects) with use of the Litchfield Wilcoxon test for quantal dose responses. Division of the ED50 for side effects (ataxia or myorelaxation) by the ED50 for antagonism of electroshock convulsions was used as a therapeutic index (TI).
(§5) Pearson product moment correlation analysis (Sigma Stat, Jandel Scientific) was used to compare in vitro potencies and in vivo anticonvulsant activity.

[3] = Solubility (analytical certificates); type: physicochemical
[4] = i.p.; Table 8
cortical neurones = assay: Excitotoxicity: glutamate toxicity in cultured cortical neurones (MTT test); type: cell-based, rat; details: words
Protocol: Cortical neurones were obtained from cerebral cortices of 17/18 day old fetal rats (Wistar), in general following the dissociation procedure described by. After short trypsinization and gentle trituration with fire-polished Pasteur pipettes, the cell suspension was washed by centrifugation. Cells were suspended in serum-free Neurobasal medium with B27 supplement (GIBCO) before plating onto poly-L-lysine (Sigma; 0.2mg/ml, 20 h, 4° C.) and laminin (Sigma; 2 μg/ml, 1h, 37° C.)-coated 96-well plates (Falcon, Primaria) at a density of 5×10^4 cells/well. Cortical neurones were maintained at 37° C. in humidified 10% CO2 /90% air. […]
Exposure to EAA was performed in serum-free Neurobasal medium containing 100 μM glutamate and the drug to be tested. After 20 h of incubation, the cytotoxic effect was morphologically examined under a phase contrast microscope and biochemically quantified by measuring cell viability with the MTT test (Promega). […] These samples were then read using an Elisa plate reader (Thermomax, MWG Biotech) at a wavelength of 570 nm. […]
IC50 s in patch clamp, excitotoxicity, and binding studies were calculated according to the four parameter alogistic equation using the Grafit computer program (Erithacus Software, England). Ki value for binding studies were then determined according to Cheng and Prusoff. […]

traction reflex in mice = assay: Traction reflex test (myorelaxant action); type: in vivo; details: i.p., Table 8
Protocol: as §1, §2

[5] = test system: MES-induced convulsions in mice; assay: Anticonvulsive activity: maximal electroshock (MES) test; type: in vivo; details: i.p., Table 8, 30 min
Protocol: as §1, §4, §5

[6] = test system: rotarod performance in mice; assay: Rotarod test (motor coordination, ataxia); type: in vivo; details: i.p., Table 8
Protocol: as §3, §4, §5

| SMILES | selectivity ratio [1] | pIC50 (NMDA receptor) | selectivity ratio [2] | Solubility [3] | Min Lethality [4] [mg/kg] | neuroprotection in vitro (cortical neurones) | TI Tract. (ED50 traction reflex impairment / ED50 MES) (traction reflex in mice) | MES ED50 [5] [mg/kg i.p.] | TI Rot. (ED50 rotarod failure / ED50 MES) [6] |
| --- | --- | --- | --- | --- | --- | --- | --- | --- | --- |
| CC1CC(C)CC(C)(N)C1 (stereo not shown) [Mrz 2/616, 1-amino-1,3,5-trimethylcyclohexane] | 1 | 3.82 | 1.4 | soluble in water, chloroform | > 50 | – | – | – | – |
| CC1(C)CC(C)(C)CC(C)(N)C1 [Mrz 2/579, 1-amino-1,3,3,5,5-pentamethylcyclohexane] | 2.9 | – | 5 | – | 108 | most potent | – | – | – |
| CC1(C)CCCC(C)(N)C1 (stereo not shown) [Mrz 2/621] | – | – | – | – | > 60 | – | 1.8 | 36.9 | 1.5 |
| CC1(C)CC(C)(C)CC(C)(N2CCCC2)C1.Cl [MRZ 2/705, N-(1,3,3,5,5-Pentamethylcyclohexyl) pyrrolidine hydrochloride] | – | – | – | – | > 50 | – | 3.9 | – | 5.4 |
